Measured values as given in patent US9695155B2, “Herbicidal substituted pyrimidinyloxy benzene compounds” (E. I. DU PONT DE NEMOURS AND COMPANY, priority 2013, dated 2017).

Legend:
canarygrass = assay: Test D preemergence; format: in vivo, Phalaris minor; settings: Phalaris minor, pre-emergence
Description: (§1) Seeds of plant species selected from bluegrass (annual bluegrass, Poa annua), blackgrass (Alopecurus myosuroides), canarygrass (littleseed canarygrass, Phalaris minor), chickweed (common chickweed, Stellaria media), galium (catchweed bedstraw, Galium aparine), bromegrass, downy (downy bromegrass, Bromus tectorum), field poppy (Papaver rhoeas), field violet (Viola arvensis), green foxtail (Setaria viridis), deadnettle (henbit deadnettle, Lamium amplexicaule), Italian ryegrass (Lolium multiflorum), kochia (Kochia scoparia), lambsquarters (Chenopodium album), oilseed rape (Brassica napus), pigweed (Amaranthus retroflexus), chamomile (scentless chamomile, Matricaria inodora), Russian thistle (Salsola kali), speedwell (bird's-eye speedwell, Veronica persica), spring barley (Hordeum vulgare), spring wheat (Triticum aestivum), wild buckwheat (Polygonum convolvulus), wild mustard (Sinapis arvensis), wild oat (Avena fatua), wild radish (Raphanus raphanistrum), windgrass (Apera spica-venti), winter barley (Hordeum vulgare), and winter wheat (Triticum aestivum) were planted into a silt loam soil and treated preemergence with test chemicals formulated in a non-phytotoxic solvent mixture which included a surfactant.
(§2) At the same time, these species were planted in pots containing Redi-Earth® planting medium (Scotts Company, 14111 Scottslawn Road, Marysville, Ohio 43041) comprising spaghnum peat moss, vermiculite, wetting agent and starter nutrients and treated with postemergence applications of the test chemicals formulated in the same manner. Plants ranged in height from 2 to 18 cm (1- to 4-leaf stage). Treated plants and controls were maintained in a controlled growth environment for 7 to 21 days after which time all species were compared to controls and visually evaluated. Plant response ratings, summarized in Table D, are based on a scale of 0 to 100 where 0 is no effect and 100 is complete control. A dash (-) response means no test result.

bromegrass, downy = assay: Test D preemergence; format: in vivo, Bromus tectorum; settings: Bromus tectorum, pre-emergence
In short: (§3)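 Values are 0–100 visual control ratings (0 none, 100 complete) given 7–21 days after application. Soil for preemergence was silt loam; postemergence plants stood 2–18 cm tall.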

deadnettle = assay: Test D preemergence; format: in vivo, Lamium amplexicaule; settings: Lamium amplexicaule, pre-emergence
In short: as §3

Italian ryegrass = assay: Test D preemergence; format: in vivo, Lolium multiflorum; settings: Lolium multiflorum, pre-emergence
In short: as §3

spring barley = assay: Test D preemergence; format: in vivo, Hordeum vulgare; settings: Hordeum vulgare, pre-emergence
In short: as §3

winter barley = assay: Test D preemergence; format: in vivo, Hordeum vulgare; settings: Hordeum vulgare, pre-emergence
In short: as §3

chickweed = assay: Test D postemergence; format: in vivo, Stellaria media; settings: Stellaria media, post-emergence
Description: as §1, §2

field violet = assay: Test D postemergence; format: in vivo, Viola arvensis; settings: Viola arvensis, post-emergence
Description: as §1, §2

pigweed = assay: Test D postemergence; format: in vivo, Amaranthus retroflexus; settings: Amaranthus retroflexus, post-emergence
Description: as §1, §2

**Q.** Which results are given for `FC(F)(F)c1cnn(-c2ccccc2Oc2ncc(Br)cn2)c1` [Compound 18, 5-bromo-2-[2-[4-(trifluoromethyl)-1H-pyrazol-1-yl]phenoxy]pyrimidine]?
**A.** pest or weed control at 16 g/ha (canarygrass; 16 g ai/ha, scale 0 (no effect) to 100 (complete control), read-out: Plant response rating, Canarygrass): 10%; pest or weed control at 31 g/ha (canarygrass; 31 g ai/ha, scale 0-100, read-out: Plant response rating, Canarygrass): 25%; pest or weed control at 62 g/ha (canarygrass; 62 g ai/ha, scale 0-100, read-out: Plant response rating, Canarygrass): 65%; pest or weed control at 125 g/ha (canarygrass; 125 g ai/ha, scale 0-100, read-out: Plant response rating, Canarygrass): 100%; pest or weed control at 250 g/ha (canarygrass; 250 g ai/ha, scale 0-100, read-out: Plant response rating, Canarygrass): 100%; pest or weed control at 16 g/ha (bromegrass, downy; 16 g ai/ha, scale 0 (no effect) to 100 (complete control), read-out: Plant response rating, Bromegrass, Downy): 0%; pest or weed control at 31 g/ha (bromegrass, downy; 31 g ai/ha, scale 0-100, read-out: Plant response rating, Bromegrass, Downy): 0%; pest or weed control at 62 g/ha (bromegrass, downy; 62 g ai/ha, scale 0-100, read-out: Plant response rating, Bromegrass, Downy): 5%; pest or weed control at 125 g/ha (bromegrass, downy; 125 g ai/ha, scale 0-100, read-out: Plant response rating, Bromegrass, Downy): 10%; pest or weed control at 250 g/ha (bromegrass, downy; 250 g ai/ha, scale 0-100, read-out: Plant response rating, Bromegrass, Downy): 50%; pest or weed control at 16 g/ha (deadnettle; 16 g ai/ha, scale 0 (no effect) to 100 (complete control), read-out: Plant response rating, Deadnettle): 10%; pest or weed control at 31 g/ha (deadnettle; 31 g ai/ha, scale 0-100, read-out: Plant response rating, Deadnettle): 5%; pest or weed control at 62 g/ha (deadnettle; 62 g ai/ha, scale 0-100, read-out: Plant response rating, Deadnettle): 55%; pest or weed control at 125 g/ha (deadnettle; 125 g ai/ha, scale 0-100, read-out: Plant response rating, Deadnettle): 70%; pest or weed control at 250 g/ha (deadnettle; 250 g ai/ha, scale 0-100, read-out: Plant response rating, Deadnettle): 100%; pest or weed control at 16 g/ha (Italian ryegrass; 16 g ai/ha, scale 0 (no effect) to 100 (complete control), read-out: Plant response rating, Ryegrass, Italian): 10%; pest or weed control at 31 g/ha (Italian ryegrass; 31 g ai/ha, scale 0 (no effect) to 100 (complete control), read-out: Plant response rating, Ryegrass, Italian): 10%; pest or weed control at 62 g/ha (Italian ryegrass; 62 g ai/ha, scale 0-100, read-out: Plant response rating, Ryegrass, Italian): 20%; pest or weed control at 125 g/ha (Italian ryegrass; 125 g ai/ha, scale 0-100, read-out: Plant response rating, Ryegrass, Italian): 25%; pest or weed control at 250 g/ha (Italian ryegrass; 250 g ai/ha, scale 0-100, read-out: Plant response rating, Ryegrass, Italian): 50%; plant injury at 16 g/ha (spring barley; 16 g ai/ha, scale 0 (no effect) to 100 (complete control), read-out: Plant response rating, Barley, Spring): 0%; plant injury at 31 g/ha (spring barley; 31 g ai/ha, scale 0-100, read-out: Plant response rating, Barley, Spring): 5%; plant injury at 62 g/ha (spring barley; 62 g ai/ha, scale 0-100, read-out: Plant response rating, Barley, Spring): 5%; plant injury at 125 g/ha (spring barley; 125 g ai/ha, scale 0-100, read-out: Plant response rating, Barley, Spring): 0%; plant injury at 250 g/ha (spring barley; 250 g ai/ha, scale 0-100, read-out: Plant response rating, Barley, Spring): 30%; plant injury at 16 g/ha (winter barley; 16 g ai/ha, scale 0 (no effect) to 100 (complete control), read-out: Plant response rating, Barley, Winter): 0%; plant injury at 31 g/ha (winter barley; 31 g ai/ha, scale 0-100, read-out: Plant response rating, Barley, Winter): 10%; plant injury at 62 g/ha (winter barley; 62 g ai/ha, scale 0-100, read-out: Plant response rating, Barley, Winter): 15%; plant injury at 125 g/ha (winter barley; 125 g ai/ha, scale 0-100, read-out: Plant response rating, Barley, Winter): 15%; plant injury at 250 g/ha (winter barley; 250 g ai/ha, scale 0-100, read-out: Plant response rating, Barley, Winter): 25%; pest or weed control at 16 g/ha (chickweed; 16 g ai/ha, scale 0-100, read-out: Plant response rating, Chickweed): 15%; pest or weed control at 31 g/ha (chickweed; 31 g ai/ha, scale 0 to 100 (0 no effect, 100 complete control), read-out: Plant response rating, Chickweed): 40%; pest or weed control at 62 g/ha (chickweed; 62 g ai/ha, scale 0 to 100 (0 no effect, 100 complete control), read-out: Plant response rating, Chickweed): 45%; pest or weed control at 125 g/ha (chickweed; 125 g ai/ha, scale 0 to 100 (0 no effect, 100 complete control), read-out: Plant response rating, Chickweed): 60%; pest or weed control at 250 g/ha (chickweed; 250 g ai/ha, scale 0 to 100 (0 no effect, 100 complete control), read-out: Plant response rating, Chickweed): 95%; pest or weed control at 16 g/ha (field violet; 16 g ai/ha, scale 0-100, read-out: Plant response rating, Field Violet): 55%; pest or weed control at 31 g/ha (field violet; 31 g ai/ha, scale 0 to 100 (0 no effect, 100 complete control), read-out: Plant response rating, Field Violet): 80%; pest or weed control at 62 g/ha (field violet; 62 g ai/ha, scale 0 to 100 (0 no effect, 100 complete control), read-out: Plant response rating, Field Violet): 65%; pest or weed control at 125 g/ha (field violet; 125 g ai/ha, scale 0 to 100 (0 no effect, 100 complete control), read-out: Plant response rating, Field Violet): 80%; pest or weed control at 250 g/ha (field violet; 250 g ai/ha, scale 0 to 100 (0 no effect, 100 complete control), read-out: Plant response rating, Field Violet): 90%; pest or weed control at 16 g/ha (pigweed; 16 g ai/ha, scale 0-100, read-out: Plant response rating, Pigweed): 65%; pest or weed control at 31 g/ha (pigweed; 31 g ai/ha, scale 0 to 100 (0 no effect, 100 complete control), read-out: Plant response rating, Pigweed): 75%; pest or weed control at 62 g/ha (pigweed; 62 g ai/ha, scale 0 to 100 (0 no effect, 100 complete control), read-out: Plant response rating, Pigweed): 75%; pest or weed control at 125 g/ha (pigweed; 125 g ai/ha, scale 0 to 100 (0 no effect, 100 complete control), read-out: Plant response rating, Pigweed): 95%; pest or weed control at 250 g/ha (pigweed; 250 g ai/ha, scale 0 to 100 (0 no effect, 100 complete control), read-out: Plant response rating, Pigweed): 95%
